Assay results taken from ChEMBL document CHEMBL1127979, “Synthesis and anti-tumour activity of 6-methyl derivatives of flavone-8-acetic acid (FAA)” (Bioorg Med Chem Lett, 1994).
Converted amounts (≈) assume the structure as drawn.

Columns and labels:
Mus musculus = experiment: In vivo antitumor activity in murine tumors at a dose of 200 mg/Kg; assay type: functional
HRT-18 cell line = experiment: In vitro concentration required to inhibit HRT18 cells; assay type: functional, cell-based; conditions: Homo sapiens
HCLO cell line = experiment: In vitro concentration required to inhibit HCLO cells; assay type: functional, cell-based; conditions: Homo sapiens
HT-29 = experiment: In vitro concentration required to inhibit HT-29 cells; assay type: functional, cell-based; conditions: Homo sapiens
MAC16 = experiment: In vitro concentration required to inhibit MAC 16 cells; assay type: functional, cell-based; conditions: Mus musculus
MAC15A = experiment: In vitro concentration required to inhibit MAC 15 A cells; assay type: functional, cell-based; conditions: Mus musculus
DLD-1 = experiment: In vitro concentration required to inhibit DLD1 cells; assay type: functional, cell-based; conditions: Homo sapiens
K562 = experiment: In vitro concentration required to inhibit K562 cells; assay type: functional, cell-based; conditions: Homo sapiens
MAC26 = experiment: In vitro concentration required to inhibit MAC 26 cells; assay type: functional, cell-based; conditions: Mus musculus
HCT-8 = experiment: In vitro concentration required to inhibit HCT18 cells; assay type: functional, cell-based; conditions: Homo sapiens

- IC50 (HRT-18 cell line): 95 µg/mL (≈ 339 µM)
- IC50 (HCLO cell line): > 500 µg/mL
- IC50 (HT-29): 390 µg/mL (≈ 1390 µM)
- IC50 (MAC16): 180 µg/mL (≈ 642 µM)
- IC50 (MAC15A): 150 µg/mL (≈ 535 µM)
- IC50 (DLD-1): > 500 µg/mL
- IC50 (K562): 310 µg/mL (≈ 1110 µM)
- IC50 (MAC26): 208 µg/mL (≈ 742 µM)
- IC50 (HCT-8): 245 µg/mL (≈ 874 µM)
Structure (SMILES): O=C(O)Cc1cccc2c(=O)cc(-c3ccccc3)oc12 [MITOFLAXONE]
- inhibition in vivo at 200 mg/kg (Mus musculus): 83%
